{"source": "patent US12685312B2", "about": "“Sulfonamide apyrase inhibitors” (Texas Crop Science, Inc., priority 2022, dated 2026)", "data": [{"tested_on": "apyrase", "experiment": "Screen for apyrase inhibitors (Method 1, in vitro phosphate-release absorbance assay)", "assay_type": "biochemical", "conditions": "inhibitor conc at 1 mM stock, 1 hr room temperature, absorbance 630 nm; rounded average of two assay results", "procedure": "Apyrase inhibitors useful as enhancers of pesticidal activity are assessed using an in vitro assay. The method of Windsor, Bio Techniques 33:1024-1030 (November 2002) was used as follows Screen for Apyrase Inhibitors- 96 well plates were used for the assay: (Greiner bio-one: REF-655901-96 well, PS, F-bottom, Clear, Non-binding) Buffers: • Reaction Buffer: 60 mM Hepes; 3 mM MgCl2, 3 mM CaCl2 and 3 mM ATP (pH 6.5) • Development Buffer A: 2% aqueous ammonium molybdate • Development Buffer B: 11% ascorbic acid in 37.5% TCA in water • Stop buffer C: 2% trisodium citrate in 2% acetic acid solution in water • Add 100 μl of reaction buffer to each well. • Add 10 μl of DMSO (control) or inhibitor/compound or compounds such as […] or orthovanadate to each well. […] A blank cell indicates either <10% observed inhibition or a large difference between repetitions. In certain examples, the lack of observed inhibition is due to a lack of solubility of the compound under assay conditions, rather than a lack of apyrase inhibitory activity.", "units": {"% Inhibition of Apyrase": "%"}, "values": [{"smiles": "O=C1CCc2cc(S(=O)(=O)Nc3cccc(C(=O)Nc4cccc(C(F)(F)F)c4)c3)ccc2N1", "note": "[I-218, 3-((2-oxo-1,2,3,4-tetrahydroquinoline)-6-sulfonamido)-N-(3-(trifluoromethyl)phenyl)benzamide]", "% Inhibition of Apyrase": 62}, {"smiles": "O=C(Nc1ccc(F)c(F)c1)c1cccc(S(=O)(=O)Nc2ccc3c(c2)OCO3)c1", "note": "[I-220, 3-(N-(benzo[d][1,3]dioxol-5-yl)sulfamoyl)-N-(3,4-difluorophenyl)benzamide]", "% Inhibition of Apyrase": 68}, {"smiles": "O=C(Nc1cccc(F)c1)c1ccc(S(=O)(=O)Nc2ccc(Cl)cc2)cc1", "note": "[I-223, 4-(N-(4-chlorophenyl)sulfamoyl)-N-(3-fluorophenyl)benzamide]", "% Inhibition of Apyrase": 74}, {"smiles": "O=C(Nc1ccc(OC(F)F)cc1)c1ccccc1S(=O)(=O)Nc1cccc(C(F)(F)F)c1", "note": "[I-224, N-(4-(difluoromethoxy)phenyl)-2-(N-(3-(trifluoromethyl)phenyl)sulfamoyl)benzamide]", "% Inhibition of Apyrase": 67}, {"smiles": "Cc1ccc(NC(=O)c2ccc(S(=O)(=O)Nc3cccc(C(F)(F)F)c3)cc2)c(C)c1", "note": "[I-225, N-(2,4-dimethylphenyl)-4-(N-(3-(trifluoromethyl)phenyl)sulfamoyl)benzamide]", "% Inhibition of Apyrase": 72}, {"smiles": "Cc1ccc(S(=O)(=O)Nc2cccc(NC(=O)c3ccc4c(c3)OCCO4)c2)cc1C", "note": "[I-227, N-(3-((3,4-dimethylphenyl)sulfonamido)phenyl)-2,3-dihydrobenzo[b][1,4]dioxine-6-carboxamide]", "% Inhibition of Apyrase": 71}, {"smiles": "COc1ccc(NC(=O)c2ccccc2NS(=O)(=O)c2cccc(C(F)(F)F)c2)cc1OC", "note": "[I-228, N-(3,4-dimethoxyphenyl)-2-((3-(trifluoromethyl)phenyl)sulfonamido)benzamide]", "% Inhibition of Apyrase": 55}, {"smiles": "Cc1ccc(NC(=O)c2cccc(S(=O)(=O)Nc3ccc4c(c3)OCO4)c2)cc1C", "note": "[I-230, 3-(N-(benzo[d][1,3]dioxol-5-yl)sulfamoyl)-N-(3,4-dimethylphenyl)benzamide]", "% Inhibition of Apyrase": 66}, {"smiles": "Cc1ccc(NC(=O)c2ccccc2NS(=O)(=O)c2cccc(C(F)(F)F)c2)cc1", "note": "[I-231, N-(p-tolyl)-2-((3-(trifluoromethyl)phenyl)sulfonamido)benzamide]", "% Inhibition of Apyrase": 58}, {"smiles": "O=C(Nc1cccc(S(=O)(=O)Nc2ccc(Br)cc2)c1)c1ccc2c(c1)OCO2", "note": "[I-232, N-(3-(N-(4-bromophenyl)sulfamoyl)phenyl)benzo[d][1,3] dioxole-5-carboxamide]", "% Inhibition of Apyrase": 65}, {"smiles": "CN(c1ccccc1)S(=O)(=O)c1ccccc1C(=O)Nc1ccc(C#N)cc1", "note": "[I-235, N-(4-cyanophenyl)-2-(N-methyl-N-phenylsulfamoyl)benzamide]", "% Inhibition of Apyrase": 51}, {"smiles": "C#Cc1cccc(NC(=O)c2cccc(S(=O)(=O)Nc3ccc(Cl)cc3)c2)c1", "note": "[I-237, 3-(N-(4-chlorophenyl)sulfamoyl)-N-(3-ethynylphenyl)benzamide]", "% Inhibition of Apyrase": 76}, {"smiles": "Cc1ccccc1NC(=O)c1cccc(S(=O)(=O)Nc2ccc3c(c2)OCO3)c1", "note": "[I-238, 3-(N-(benzo[d][1,3]dioxol-5-yl)sulfamoyl)-N-(o-tolyl)benzamide]", "% Inhibition of Apyrase": 74}, {"smiles": "O=C(NC12CC3CC(CC(C3)C1)C2)c1cccc(S(=O)(=O)Nc2ccc(Br)cc2)c1", "note": "[I-240, N-(adamantan-1-yl)-3-(N-(4-bromophenyl)sulfamoyl)benzamide]", "% Inhibition of Apyrase": 71}, {"smiles": "O=C(Nc1ccc(Cl)c([N+](=O)[O-])c1)c1cccc(S(=O)(=O)Nc2cc(C(F)(F)F)ccc2Cl)c1", "note": "[I-241, N-(4-chloro-3-nitrophenyl)-3-(N-(2-chloro-5-(trifluoromethyl)phenyl)sulfamoyl)benzamide]", "% Inhibition of Apyrase": 71}, {"smiles": "CC1Cc2ccccc2N1S(=O)(=O)c1cccc(C(=O)Nc2ccc(F)c([N+](=O)[O-])c2)c1", "note": "(centres unmarked) [I-242, N-(4-fluoro-3-nitrophenyl)-3-((2-methylindolin-1-yl)sulfonyl)benzamide]", "% Inhibition of Apyrase": 69}, {"smiles": "O=C(Nc1ccc(OC(F)F)cc1)c1cccc(S(=O)(=O)Nc2ccc3c(c2)OCO3)c1", "note": "[I-243, 3-(N-(benzo[d][1,3]dioxol-5-yl)sulfamoyl)-N-(4-(difluoromethoxy)phenyl)benzamide]", "% Inhibition of Apyrase": 69}]}]}
